From ChEMBL document CHEMBL5649166, “RIP3 induces apoptosis independent of pronecrotic kinase activity” (Mol Cell, 2014)
Calls of active or inactive are those of the source. The rule behind the calls is not given here.

Columns and labels:
[1] = molecular target: Serine/threonine-protein kinase ULK2 (Homo sapiens) (UniProt Q8IYT8); assay: Inhibition of human ULK2 using myelin basic protein as substrate at 1 uM in presence of 32P-ATP by Hotspot assay relative to control; values are per cent of control
Chain of Serine/threonine-protein kinase ULK2 (Homo sapiens) (Q8IYT8 whole entry): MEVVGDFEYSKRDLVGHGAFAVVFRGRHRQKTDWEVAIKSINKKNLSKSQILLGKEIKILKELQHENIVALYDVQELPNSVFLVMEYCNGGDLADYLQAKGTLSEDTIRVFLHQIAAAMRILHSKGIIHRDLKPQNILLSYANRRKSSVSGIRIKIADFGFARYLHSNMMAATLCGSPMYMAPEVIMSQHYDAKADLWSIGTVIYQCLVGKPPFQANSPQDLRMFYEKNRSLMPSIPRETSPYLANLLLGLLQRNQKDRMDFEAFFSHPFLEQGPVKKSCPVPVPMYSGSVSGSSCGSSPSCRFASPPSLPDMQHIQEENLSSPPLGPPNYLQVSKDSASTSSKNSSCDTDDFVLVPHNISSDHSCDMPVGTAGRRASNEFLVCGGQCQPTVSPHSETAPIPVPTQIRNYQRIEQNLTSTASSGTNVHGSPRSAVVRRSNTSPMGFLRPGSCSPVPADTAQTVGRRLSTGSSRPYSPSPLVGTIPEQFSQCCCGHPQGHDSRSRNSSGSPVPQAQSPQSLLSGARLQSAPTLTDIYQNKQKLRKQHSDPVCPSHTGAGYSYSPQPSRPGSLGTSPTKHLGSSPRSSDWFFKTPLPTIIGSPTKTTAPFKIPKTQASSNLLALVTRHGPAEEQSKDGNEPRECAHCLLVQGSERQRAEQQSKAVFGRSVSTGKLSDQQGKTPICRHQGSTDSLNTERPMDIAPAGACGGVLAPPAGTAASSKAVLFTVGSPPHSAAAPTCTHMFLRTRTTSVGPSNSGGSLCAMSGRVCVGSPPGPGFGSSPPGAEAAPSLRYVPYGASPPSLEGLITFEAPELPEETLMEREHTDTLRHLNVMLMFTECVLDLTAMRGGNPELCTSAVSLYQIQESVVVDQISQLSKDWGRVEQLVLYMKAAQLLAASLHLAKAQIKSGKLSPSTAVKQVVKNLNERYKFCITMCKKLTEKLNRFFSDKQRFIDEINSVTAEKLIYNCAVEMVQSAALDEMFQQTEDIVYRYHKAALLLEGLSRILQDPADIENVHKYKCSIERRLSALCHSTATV

SVEC4-10 = assay: Inhibition of DAI-induced necroptosis in MCMV M45mutRHIM infected mouse SVEC4-10 cells assessed as increase in cell viability at 10 uM incubated for 18 hrs in presence of zVAD by Cell Titer-Glo luminescent cell viability assay; assay type: functional, cell-based
3T3SA [2] = assay: Induction of apoptosis in mouse 3T3SA cells assessed as cell morphological changes incubated for 2.5 hrs by transmission electron microscopic analysis; assay type: toxicity, cell-based
3T3SA [3] = assay: Induction of apoptosis in mouse 3T3SA cells incubated for 18 hrs in presence of zVAD by Cell Titer-Glo luminescent cell viability assay; assay type: toxicity, cell-based
MEF [4] = assay: Induction of apoptosis in […] MEF cells incubated for 18 hrs by Cell Titer-Glo luminescent cell viability assay; assay type: toxicity, cell-based; settings: mouse
MEF [5] = assay: Induction of apoptosis in cFLIPL-/- MEF cells incubated for 18 hrs by Cell Titer-Glo luminescent cell viability assay; assay type: toxicity, cell-based; settings: mouse
MEF [6] = assay: Induction of apoptosis in cFLIPL-/- MEF cells transfected with cFLIPL expressing retrovirus incubated for 18 hrs by Cell Titer-Glo luminescent cell viability assay; assay type: toxicity, cell-based; settings: mouse
3T3SA [7] = assay: Induction of apoptosis in RIP3shRNA transfected mouse 3T3SA cells co-transfected with shRNA-resistant RIP3 D143N mutant pre-tranfected for 16 hrs followed by compound addition and measured after 18 hrs in presence of zVAD by Cell Titer-Glo luminescent cell viability assay; assay type: toxicity, cell-based
3T3SA [8] = assay: Induction of apoptosis in mouse 3T3SA cells in presence of vIRA by Cell Titer-Glo luminescent cell viability assay; assay type: toxicity, cell-based
MEF [9] = assay: Induction of apoptosis in RIP3-/- MEF cells expressing dox-induced wildtype RIP3 assessed as RIP1-RPI3 association incubated for 1 hrs by immunoblot analysis; assay type: toxicity, cell-based; settings: mouse
MEF [10] = assay: Induction of apoptosis in RIP3-/- MEF cells expressing dox-induced RIP3 K51A mutant assessed as RIP1-RIP3 association incubated for 1 hrs by immunoblot analysis; assay type: toxicity, cell-based; settings: mouse
3T3SA [11] = assay: Induction of apoptosis in RIP3 shRNA transfected mouse 3T3SA cells co-transfected with shRNA resistant RIP3 K51A mutant assessed as accumulation of RIP3 K51A mutant in pellet incubated for 3 hrs in presence of zVAD by immunoblot analysis; assay type: toxicity, cell-based
MEF [12] = assay: Induction of apoptosis in MEF cells expressing RIP3 K51A/K51A mutant incubated for 18 hrs by Cell Titer-Glo luminescent cell viability assay; assay type: toxicity, cell-based; settings: mouse

## CNC(=O)c1ccc2c(c1)ncn2-c1ccc(CC(=O)OC(C)(C)C)cc1
[1]
  residual activity: 96.1%

## CC(C)S(=O)(=O)c1ccc2nccc(Nc3ccc4scnc4c3)c2c1
SVEC4-10
  inhibition: Active
3T3SA [2]
  Activity: Toxic
3T3SA [3]
  Activity: Non-Toxic
MEF [4]
  Activity: Non-Toxic
MEF [5]
  Activity: Non-Toxic
MEF [6]
  Activity: Toxic
3T3SA [7]
  Activity: Non-Toxic
3T3SA [8]
  Activity: Non-Toxic
MEF [9]
  Activity: Toxic
MEF [10]
  Activity: Toxic
3T3SA [11]
  Activity: Toxic
MEF [12]
  Activity: Toxic
